# Results published in publication PMC4931252 (Nature Communications, 2016).
# Target: T1, prion protein PrP (PrP^C, SHaPrP) (Mesocricetus auratus, UniProt P04273)
# T1 construct: gene PRNP
# Format: binding
# T1 sequence (P04273 90-231 limits assumed): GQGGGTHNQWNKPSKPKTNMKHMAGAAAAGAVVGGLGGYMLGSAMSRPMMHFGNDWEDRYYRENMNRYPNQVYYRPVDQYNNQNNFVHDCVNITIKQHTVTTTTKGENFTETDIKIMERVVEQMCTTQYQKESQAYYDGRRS
smiles,measurement,value
"C[n+]1ccc(-c2c3nc(c(-c4cc[n+](C)cc4)c4ccc([nH]4)c(-c4cc[n+](C)cc4)c4nc(c(-c5cc[n+](C)cc5)c5ccc2[nH]5)C=C4)C=C3)cc1.[Fe+3] [Fe-TMPyP, iron(III) meso-tetra (N-methyl-4-pyridyl-porphine)]",Kd,9 ± 3 µM
